Earlier results, collected in patent publication US20240130937A1, “ORAL CARE COMPOSITION” (LACER, S.A., priority 2019, published 2024).

Conditions: at 25° C.

[Cl-].[Cl-].[Zn+2] [zinc chloride]
solubility in water: 4320 mg/mL
